Measured values reported in patent US20110112057A1, “Sequential administration of 20,20,21,21,21-pentafluoro-17-hydroxy-11Beta-[4-(hydroxyacetyl)phenyl]-19-nor-17Alpha-pregna-4,9-dien-3-one and one or more progestogens for the treatment of gynaecological disorders” (BAYER SCHERING PHARIMA AKTIENGESELL SCHAFT, priority 2008, published 2011).

Assays:
[1] = test system: women of reproductive age; experiment: randomised study of sequential treatment cycles with progesterone receptor antagonist followed by a progestogen; type: in vivo
Description: Women of reproductive age are treated in a randomised study sequentially in two treatment cycles with 20,20,21,21,21-pentafluoro-17-hydroxy-11β-[4-(hydroxyacetyl)phenyl]-19-nor-17α-pregna-4,9-dien-3-one. For this purpose, 20,20,21,21,21-pentafluoro-17-hydroxy-11β-[4-(hydroxyacetyl)phenyl]-19-nor-17α-pregna-4,9-dien-3-one is administered to the women in each case for 84 days with a daily dose of between about 1 mg and about 50 mg, followed by intake of a progestogen over a period of about 10 to 14 days. This complete treatment cycle is repeated once.

[2] = test system: endometrium of patients with symptomatic uterine leiomyomata; conditions: after use for 3 months (Williams 2007); cited from earlier work
[3] = test system: healthy, tube-ligated women; experiment: randomised study on the effect of lonaprisan in healthy, tube-ligated women; type: in vivo
Description: 36 healthy, tube-ligated women from 24 to 43 years of age were subjects in a randomised study on the effect of lonaprisan. For this purpose, the women were divided into three groups: 7 women received placebo, 14 women 1 mg of lonaprisan and 15 women 10 mg of lonaprisan over a period of 3 months, once a day.

[4] = 1 mg or 10 mg lonaprisan once a day over 3 months, not observed in placebo group

SMILES: C[C@]12C[C@H](c3ccc(C(=O)CO)cc3)C3=C4CCC(=O)C=C4CC[C@H]3[C@@H]1CC[C@@]2(O)C(F)(F)C(F)(F)F [20,20,21,21,21-pentafluoro-17-hydroxy-11β-[4-(hydroxyacetyl)phenyl]-19-nor-17α-pregna-4,9-dien-3-one]
- bleeding pattern during the treatment phase ([1]; 84 days, daily dose about 1 mg to about 50 mg): amenorrhoea or a greatly reduced bleeding
- bleeding after sequential treatment with the progestogen ([1]; 84 days, daily dose about 1 mg to about 50 mg, followed by a progestogen for about 10 to 14 days, cycle repeated once): menstrual bleeding following administration of the progestogen
- endometrial biopsies: persistent changes in the endometrium ([1]; after completion of each treatment cycle): no persistent changes in the endometrium

SMILES: COC[C@]1(OC)CC[C@H]2[C@@H]3CCC4=CC(=O)CCC4=C3[C@@H](c3ccc(/C=N/O)cc3)C[C@@]21C [asoprisnil]
- endometrial pattern diagnosed [2]: non-physiological secretory effect
- endometrial vessels [2]: thickening of the smooth muscle cell layer surrounding the endometrial vessels

SMILES: CC(=O)c1ccc([C@H]2C[C@@]3(C)[C@@H](CC[C@@]3(O)C(F)(F)C(F)(F)F)[C@@H]3CCC4=CC(=O)CCC4=C32)cc1 [lonaprisan, 11β-(4-acetylphenyl)-20,20,21,21,21-pentafluoro-17-hydroxy-19-nor-17α-pregna-4,9-dien-3-one]
- bleeding pattern [3, 4]: amenorrhoea or a greatly reduced bleeding
- effect on ovulation [3, 4]: inhibition of ovulation
- menstrual bleeding after discontinuation ([3]; after discontinuation of lonaprisan): spontaneous return of menstrual bleeding
- endometrial biopsies: persistent changes in the endometrium ([3]; after the first menstrual bleeding after completion of the treatment phase): no persistent changes in the endometrium
